SMILES strings stand for the structures. Values after ≈ are worked out from the molar mass of the structure shown. Like-named read-outs stand apart in the source and are kept apart here.

Experimental findings from patent US4078079A, “Thiocyano-xanthate miticides” (Stauffer Chemical Company, priority 1976, dated 1978) are described below.

One assay deals with Aspergillus niger. The assay can be described thus: In Vitro Agar Screening Tests (Example 5). Particulars: A. niger, potato dextrose, 30° C, read-out: Minimum Inhibitory Concentration. In kind it is cell-based. The method, then:
(§1) This test measures the bactericidal and fungicidal properties of a compound when in contact with growing bacteria or fungi in an artificial medium. The test is conducted by adding 20 ml. portions of a suitable warm sterile agar solution into 20 × 100 Petri dishes. Then, the test compound, in 0.5% acetone solution, is added to the Petri dishes at levels of 1, 5, 10 and 50 ug/ml. and mixed with the warm mobile agar solution. The treated agar mixture is then allowed to come to room temperature and solidify. Cells of the chosen organism are streaked on the surface of the solidified agar and are then incubated for such lengths of time that untreated samples containing no toxicant show luxurious growth typical of the particular organism. This time varies from 24 hours to one week depending on the particular organism. The fungi are incubated at 30° C and the bacteria are incubated at 37° C. Nutrient agar is used as the medium in this test for the bacteria. Potato dextrose is used as the medium for the fungi. The extent of growth is noted at the end of the incubation period.

In another assay the test system is Pencillium italicum. In words: In Vitro Agar Screening Tests (Example 5). In kind it is cell-based. Particulars: Penicillium italicum, P. italicum, potato dextrose, 30° C, read-out: Minimum Inhibitory Concentration. The method, then:
as §1

In a further assay the test system is Staphylococcus aureus. The assay can be described thus: In Vitro Agar Screening Tests (Example 5). In kind it is cell-based. Conditions: S. aureus, nutrient agar, 37° C, read-out: Minimum Inhibitory Concentration. The method, then:
as §1

The test system of another assay is Escherichia coli. The assay can be described thus: In Vitro Agar Screening Tests (Example 5). Type of assay: cell-based. Conditions: E. coli, nutrient agar, 37° C, read-out: Minimum Inhibitory Concentration. The method, then: as §1
Assay [1] deals with Two-spotted Mite (2-SM) Tetranychus urticae (Koch). The assay can be described thus: Plant Dip Assay on Two-Spotted Mite, 2-SM PE. Type of assay: in vivo. Particulars: infested Pinto Bean plants dipped 2-3 seconds, mortality after seven days, adult mites. The text has this: (§2) The Two-spotted Mite (2-SM) Tetranychus urticae (Koch) is subjected to evaluation tests for miticidal activity. Plant Dip Assay on Two-Spotted Mite [Tetranychus urticae (Koch)] Pinto Bean plants (Phaseolus sp.) approximately 10 cm tall, are transplanted into sandy loam soil in 3 inch clay pots and thoroughly infested with two-spotted mites of mixed ages and sexes. Twenty-four hours later the infested plants are inverted and dipped for 2-3 seconds in 50-50 acetone-water solutions of the test chemicals. Treated plants are held in the greenhouse, and seven days later mortality is determined for both the adult mites and the nymphs hatching from eggs which were on the plants at the time of treatment. Test concentrations range from 0.05% down to that at which 50% mortality occurs. The values obtained in this test are found in Table VII under the Columns 2SM-PE and 2SM-Eggs.

Assay [2] concerns Two-spotted Mite (2-SM) Tetranychus urticae (Koch) eggs. The assay can be described thus: Plant Dip Assay on Two-Spotted Mite, 2-SM Eggs. In kind it is in vivo. Particulars: infested Pinto Bean plants dipped 2-3 seconds, mortality after seven days, nymphs hatching from eggs.
Excerpt: as §2

Where [3] appears, read: partial control at this concentration.

For `N#CSCSC(=S)OCCOc1ccccc1` [Compound 2], the results for the MIC in the assay with Aspergillus niger, in the assay with Pencillium italicum and with Staphylococcus aureus were 1 µg/mL (≈ 3.5 µM), 0.25 µg/mL (≈ 0.876 µM) and 10 µg/mL (≈ 35 µM), respectively.

Turning to `COCCOC(=S)SCSC#N` [Compound 3], the MIC came to 5 µg/mL (≈ 22.4 µM) in the assay with Aspergillus niger, 50 µg/mL (≈ 224 µM) in the assay with Escherichia coli, 0.5 µg/mL (≈ 2.24 µM) in the assay with Pencillium italicum and 50 µg/mL (≈ 224 µM) in the assay on Staphylococcus aureus. For the same molecule, the “2-SM PE: concentration at which 50% mortality occurs” value in assay [1] was “.01%”. For the same molecule, the “2-SM Eggs: concentration at which 50% mortality occurs” value in assay [2] is recorded as “.01%”.

On to `CCSCCOC(=S)SCSC#N` [Compound 4], for which the MIC worked out at 5 µg/mL (≈ 19.7 µM) in the assay on Aspergillus niger, 50 µg/mL (≈ 197 µM) with Escherichia coli, 0.5 µg/mL (≈ 1.97 µM) with Pencillium italicum and 5 µg/mL (≈ 19.7 µM) in the assay with Staphylococcus aureus.

In the case of `CCCCOCCOC(=S)SCSC#N` [Compound 6], the MIC with Aspergillus niger was 0.5 µg/mL (≈ 1.88 µM); with Escherichia coli, 50 µg/mL (≈ 188 µM); in the assay on Pencillium italicum, 0.5 µg/mL (≈ 1.88 µM); in the assay with Staphylococcus aureus it was 5 µg/mL (≈ 18.8 µM). The “2-SM PE: concentration at which 50% mortality occurs” value in assay [1] is “.03%”.

On to `CCCCOCCOCCOC(=S)SCSC#N` [Compound 7], for which the MIC in the assay with Aspergillus niger, with Pencillium italicum and in the assay with Staphylococcus aureus was 5 µg/mL (≈ 16.2 µM) each time. For the same molecule, the “2-SM PE: concentration at which 50% mortality occurs” value in assay [1] is “.03%”.

As for `N#CSCSC(=S)OCCOc1ccccc1Cl` [Compound 8], the values for the MIC in the assay on Aspergillus niger, with Pencillium italicum and with Staphylococcus aureus were 5 µg/mL (≈ 15.6 µM), 0.5 µg/mL (≈ 1.56 µM) and 10 µg/mL (≈ 31.3 µM), respectively. Besides, the “2-SM PE: concentration at which 50% mortality occurs” value in assay [1] is listed as “.05%”.

As for `N#CSCSC(=S)OCCSc1ccccc1` [Compound 9], the figures for the MIC with Aspergillus niger, in the assay with Pencillium italicum and in the assay on Staphylococcus aureus were 1 µg/mL (≈ 3.32 µM), 1 µg/mL (≈ 3.32 µM) and 5 µg/mL (≈ 16.6 µM), respectively. Moreover, the “2-SM PE: concentration at which 50% mortality occurs” value in assay [1] is “> .05%”. In assay [2], the “2-SM Eggs: concentration at which 50% mortality occurs” value was “> .05%”.

Consider `Cc1ccc(OCCOC(=S)SCSC#N)cc1` [Compound 10], for which the values for the MIC with Aspergillus niger, in the assay on Pencillium italicum and in the assay with Staphylococcus aureus were 1 µg/mL (≈ 3.34 µM), 0.25 µg/mL (≈ 0.835 µM) and 10 µg/mL (≈ 33.4 µM), respectively. In addition, the “2-SM PE: concentration at which 50% mortality occurs” value in assay [1] is “> .05%”. In assay [2], the “2-SM Eggs: concentration at which 50% mortality occurs” value is reported as “> .05%”.

`COc1ccc(OCCOC(=S)SCSC#N)cc1` [Compound 11]: the MIC in the assay on Aspergillus niger came out at 1 µg/mL (≈ 3.17 µM); in the assay on Escherichia coli, 25 µg/mL (≈ 79.3 µM); in the assay with Pencillium italicum (setting [3]), 0.25 µg/mL (≈ 0.793 µM); in the assay with Staphylococcus aureus it was 5 µg/mL (≈ 15.9 µM). The “2-SM PE: concentration at which 50% mortality occurs” value in assay [1] is reported as “.05%”. Also, in assay [2], the “2-SM Eggs: concentration at which 50% mortality occurs” value was “.05%”.

On to `Cc1ccccc1OCCOC(=S)SCSC#N` [Compound 12], for which the MIC is 1 µg/mL (≈ 3.34 µM) in the assay with Aspergillus niger, over 50 µg/mL in the assay on Escherichia coli, 0.125 µg/mL (≈ 0.417 µM) with Pencillium italicum (setting [3]) and 5 µg/mL (≈ 16.7 µM) in the assay with Staphylococcus aureus. In addition, the “2-SM PE: concentration at which 50% mortality occurs” value in assay [1] is recorded as “.01%”. Moreover, the “2-SM Eggs: concentration at which 50% mortality occurs” value in assay [2] is on record as “.03%”.

Regarding `N#CSCSC(=S)OCCOc1ccc(Cl)cc1` [Compound 13], the MIC was 1 µg/mL (≈ 3.13 µM) with Aspergillus niger, over 50 µg/mL in the assay on Escherichia coli, 0.5 µg/mL (≈ 1.56 µM) in the assay with Pencillium italicum (setting [3]) and 5 µg/mL (≈ 15.6 µM) in the assay on Staphylococcus aureus. In addition, the “2-SM PE: concentration at which 50% mortality occurs” value in assay [1] is reported as “> .05%”. In assay [2], the “2-SM Eggs: concentration at which 50% mortality occurs” value is “> .05%”.

Regarding `N#CSCSC(=S)OCCSc1ccc(Cl)cc1` [Compound 14], the MIC in the assay with Aspergillus niger (setting [3]) was 1 µg/mL (≈ 2.98 µM); in the assay on Escherichia coli, over 50 µg/mL; with Pencillium italicum (setting [3]), 1 µg/mL (≈ 2.98 µM); in the assay on Staphylococcus aureus it was under 5 µg/mL. In addition, the “2-SM PE: concentration at which 50% mortality occurs” value in assay [1] is “.008%”. Also, the “2-SM Eggs: concentration at which 50% mortality occurs” value in assay [2] is reported as “.003%”.

Regarding `N#CSCSC(=S)OCCSc1ccc2ccccc2c1` [Compound 15], the MIC in the assay with Aspergillus niger (setting [3]) is 5 µg/mL (≈ 14.2 µM); with Escherichia coli it was over 50 µg/mL; in the assay with Pencillium italicum, 5 µg/mL (≈ 14.2 µM); in the assay on Staphylococcus aureus (setting [3]), 0.25 µg/mL (≈ 0.711 µM). The “2-SM PE: concentration at which 50% mortality occurs” value in assay [1] was “> .05%”. In assay [2], the “2-SM Eggs: concentration at which 50% mortality occurs” value is on record as “> .05%”.

For the molecule `Cc1ccc(SCCOC(=S)SCSC#N)cc1` [Compound 17], the MIC in the assay with Aspergillus niger (setting [3]) is 1 µg/mL (≈ 3.17 µM); in the assay on Escherichia coli (setting [3]), 50 µg/mL (≈ 158 µM); in the assay with Pencillium italicum (setting [3]) it was 0.5 µg/mL (≈ 1.58 µM); in the assay on Staphylococcus aureus, 5 µg/mL (≈ 15.8 µM). The “2-SM PE: concentration at which 50% mortality occurs” value in assay [1] was “> .05%”. Besides, the “2-SM Eggs: concentration at which 50% mortality occurs” value in assay [2] is “> .05%”.

Regarding `N#CSCSC(=S)OCCOc1ccc(Cl)cc1Cl` [Compound 18], the MIC with Aspergillus niger, in the assay on Pencillium italicum and in the assay on Staphylococcus aureus was 5 µg/mL (≈ 14.1 µM) each time.
